The source made the active and inactive calls. No cut-off for these calls is given here.
Columns and labels:
[1] = target: T1, Serine/threonine-protein kinase TAO1 (Homo sapiens) (UniProt Q7L7X3); experiment: Inhibition of TAO1 Lys2 labeling site in human Huh-7 cell lysate at 1 uM by KiNativ Profiling analysis relative to control; type: subcellular
T1 sequence (whole entry): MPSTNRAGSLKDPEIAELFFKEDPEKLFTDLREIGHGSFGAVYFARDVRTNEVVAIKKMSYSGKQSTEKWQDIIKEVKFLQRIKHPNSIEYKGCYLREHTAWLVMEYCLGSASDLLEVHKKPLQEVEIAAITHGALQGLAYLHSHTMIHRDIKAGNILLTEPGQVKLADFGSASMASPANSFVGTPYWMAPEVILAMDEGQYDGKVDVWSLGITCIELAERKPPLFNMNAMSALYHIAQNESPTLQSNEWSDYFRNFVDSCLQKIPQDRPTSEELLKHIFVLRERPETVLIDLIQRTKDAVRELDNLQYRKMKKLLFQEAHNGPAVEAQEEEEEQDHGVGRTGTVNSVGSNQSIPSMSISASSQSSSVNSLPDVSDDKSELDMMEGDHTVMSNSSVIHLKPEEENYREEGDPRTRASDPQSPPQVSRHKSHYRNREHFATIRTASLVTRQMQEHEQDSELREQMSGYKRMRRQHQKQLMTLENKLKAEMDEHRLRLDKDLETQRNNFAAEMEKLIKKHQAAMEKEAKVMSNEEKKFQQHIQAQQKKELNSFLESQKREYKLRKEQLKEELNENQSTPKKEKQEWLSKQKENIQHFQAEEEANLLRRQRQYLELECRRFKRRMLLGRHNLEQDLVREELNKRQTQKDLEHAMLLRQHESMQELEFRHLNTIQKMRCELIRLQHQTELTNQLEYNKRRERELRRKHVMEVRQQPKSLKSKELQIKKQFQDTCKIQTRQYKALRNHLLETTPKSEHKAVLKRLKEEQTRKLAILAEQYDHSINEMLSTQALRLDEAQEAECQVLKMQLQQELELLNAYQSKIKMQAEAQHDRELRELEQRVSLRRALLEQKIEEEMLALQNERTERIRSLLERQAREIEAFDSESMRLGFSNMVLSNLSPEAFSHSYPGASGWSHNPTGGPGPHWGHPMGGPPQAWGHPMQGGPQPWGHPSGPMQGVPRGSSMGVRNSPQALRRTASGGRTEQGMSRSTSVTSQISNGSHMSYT

[2] = target: T2, Serine/threonine-protein kinase STK11 (Homo sapiens) (UniProt Q15831); experiment: Inhibition of LKB1 (unknown origin) at 10 uM by Ambit Kinomescan binding assay
T2 sequence (whole entry): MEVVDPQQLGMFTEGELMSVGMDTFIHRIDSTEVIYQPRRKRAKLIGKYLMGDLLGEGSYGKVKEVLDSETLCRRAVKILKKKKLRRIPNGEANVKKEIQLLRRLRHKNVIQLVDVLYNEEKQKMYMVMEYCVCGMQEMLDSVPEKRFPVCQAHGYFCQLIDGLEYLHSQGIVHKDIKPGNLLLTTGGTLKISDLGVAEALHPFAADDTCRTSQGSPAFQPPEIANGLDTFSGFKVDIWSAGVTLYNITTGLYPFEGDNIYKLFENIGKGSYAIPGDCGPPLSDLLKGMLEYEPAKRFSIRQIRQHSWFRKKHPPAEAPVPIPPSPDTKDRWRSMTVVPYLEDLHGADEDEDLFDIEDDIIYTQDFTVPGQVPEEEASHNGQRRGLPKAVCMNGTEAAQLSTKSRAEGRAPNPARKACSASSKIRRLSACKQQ

[3] = target: MAP/microtubule affinity-regulating kinase 3 (Homo sapiens) (UniProt P27448); experiment: Inhibition of MARK3 (unknown origin) at 10 uM by Ambit Kinomescan binding assay
[4] = target: T3, Dual specificity mitogen-activated protein kinase kinase 4 (Homo sapiens) (UniProt P45985); experiment: Inhibition of MAP2K4 Lys2 labeling site in human A-375 cells at 0.05 uM by KiNativ Profiling analysis relative to control; type: cell-based
T3 sequence (whole entry): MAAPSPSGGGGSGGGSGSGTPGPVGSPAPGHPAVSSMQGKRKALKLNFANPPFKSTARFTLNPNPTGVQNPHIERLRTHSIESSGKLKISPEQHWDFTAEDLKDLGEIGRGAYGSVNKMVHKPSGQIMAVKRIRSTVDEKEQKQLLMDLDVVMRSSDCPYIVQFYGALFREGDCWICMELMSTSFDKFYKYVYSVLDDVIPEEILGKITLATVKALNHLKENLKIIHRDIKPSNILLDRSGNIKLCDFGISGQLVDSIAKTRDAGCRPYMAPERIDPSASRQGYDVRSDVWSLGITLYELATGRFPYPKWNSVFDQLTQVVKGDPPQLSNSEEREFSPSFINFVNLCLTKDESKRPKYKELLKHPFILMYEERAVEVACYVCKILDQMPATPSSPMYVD

[5] = target: T4, Serine/threonine-protein kinase D2 (Homo sapiens) (UniProt Q9BZL6); experiment: Inhibition of PKD2 Lys1 labeling site in human A-375 cells at 5 uM by KiNativ Profiling analysis relative to control; type: cell-based
T4 sequence (whole entry): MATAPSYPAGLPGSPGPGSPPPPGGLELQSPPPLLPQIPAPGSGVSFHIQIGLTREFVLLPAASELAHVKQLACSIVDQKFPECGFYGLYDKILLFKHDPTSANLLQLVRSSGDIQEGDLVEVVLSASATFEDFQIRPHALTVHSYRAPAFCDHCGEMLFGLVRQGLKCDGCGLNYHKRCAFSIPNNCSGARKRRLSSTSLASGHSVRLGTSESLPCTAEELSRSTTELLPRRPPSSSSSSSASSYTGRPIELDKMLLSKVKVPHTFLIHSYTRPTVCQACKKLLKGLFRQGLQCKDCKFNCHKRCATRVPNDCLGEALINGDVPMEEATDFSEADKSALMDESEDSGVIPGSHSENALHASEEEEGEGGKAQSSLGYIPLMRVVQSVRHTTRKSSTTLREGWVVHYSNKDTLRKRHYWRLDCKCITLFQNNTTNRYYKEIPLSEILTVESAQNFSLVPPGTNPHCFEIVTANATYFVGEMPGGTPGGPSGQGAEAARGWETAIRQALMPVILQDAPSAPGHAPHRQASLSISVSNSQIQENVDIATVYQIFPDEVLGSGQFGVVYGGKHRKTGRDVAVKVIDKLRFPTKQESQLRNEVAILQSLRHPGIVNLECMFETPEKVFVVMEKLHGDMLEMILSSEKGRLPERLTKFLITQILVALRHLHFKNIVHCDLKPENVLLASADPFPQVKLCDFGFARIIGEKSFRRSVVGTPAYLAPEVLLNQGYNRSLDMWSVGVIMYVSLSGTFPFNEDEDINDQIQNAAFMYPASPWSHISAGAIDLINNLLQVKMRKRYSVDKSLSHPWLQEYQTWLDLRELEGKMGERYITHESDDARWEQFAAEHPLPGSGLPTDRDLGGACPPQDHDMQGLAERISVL

[6] = target: Receptor tyrosine-protein kinase erbB-3 (Homo sapiens) (UniProt P21860); experiment: Inhibition of HER3/ErbB3 Lys1 labeling site in human A-375 cells at 0.05 uM by KiNativ Profiling analysis relative to control; type: cell-based
Chain of Receptor tyrosine-protein kinase erbB-3 (Homo sapiens) (P21860 whole entry): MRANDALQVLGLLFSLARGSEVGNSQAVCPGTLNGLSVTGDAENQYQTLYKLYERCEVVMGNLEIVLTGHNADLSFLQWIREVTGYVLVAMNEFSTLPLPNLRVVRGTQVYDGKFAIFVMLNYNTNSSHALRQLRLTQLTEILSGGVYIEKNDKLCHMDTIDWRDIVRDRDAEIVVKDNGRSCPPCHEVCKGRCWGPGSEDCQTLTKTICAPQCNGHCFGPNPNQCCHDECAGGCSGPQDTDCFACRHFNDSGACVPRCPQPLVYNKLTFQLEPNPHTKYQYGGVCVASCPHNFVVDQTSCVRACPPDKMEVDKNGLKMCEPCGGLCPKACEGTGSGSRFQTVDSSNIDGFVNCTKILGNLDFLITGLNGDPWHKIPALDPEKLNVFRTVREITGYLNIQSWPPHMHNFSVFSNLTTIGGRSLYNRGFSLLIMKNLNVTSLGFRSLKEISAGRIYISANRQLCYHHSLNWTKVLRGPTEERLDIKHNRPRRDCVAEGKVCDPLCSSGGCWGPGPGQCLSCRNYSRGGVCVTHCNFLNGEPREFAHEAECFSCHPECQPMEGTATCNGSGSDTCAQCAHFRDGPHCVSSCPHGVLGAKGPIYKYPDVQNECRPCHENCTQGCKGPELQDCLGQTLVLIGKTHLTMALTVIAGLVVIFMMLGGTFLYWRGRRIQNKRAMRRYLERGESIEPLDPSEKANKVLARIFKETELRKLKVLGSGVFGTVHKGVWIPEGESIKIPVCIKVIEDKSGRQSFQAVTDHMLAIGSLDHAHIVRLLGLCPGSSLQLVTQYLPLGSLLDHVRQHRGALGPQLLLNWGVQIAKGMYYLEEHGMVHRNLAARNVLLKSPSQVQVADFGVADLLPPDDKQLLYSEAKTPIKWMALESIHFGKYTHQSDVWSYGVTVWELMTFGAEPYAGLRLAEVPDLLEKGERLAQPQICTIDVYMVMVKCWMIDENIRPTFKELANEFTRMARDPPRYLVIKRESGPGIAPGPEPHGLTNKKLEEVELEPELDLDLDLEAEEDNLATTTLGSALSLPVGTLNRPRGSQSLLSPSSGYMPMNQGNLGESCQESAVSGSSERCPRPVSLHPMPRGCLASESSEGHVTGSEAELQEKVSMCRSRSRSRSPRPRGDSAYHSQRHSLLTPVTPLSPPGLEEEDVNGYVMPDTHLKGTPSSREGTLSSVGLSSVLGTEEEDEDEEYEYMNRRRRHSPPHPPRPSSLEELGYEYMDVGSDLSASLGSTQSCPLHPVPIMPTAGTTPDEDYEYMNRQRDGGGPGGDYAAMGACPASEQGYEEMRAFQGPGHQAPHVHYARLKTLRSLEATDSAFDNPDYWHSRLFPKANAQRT

Chain of MAP/microtubule affinity-regulating kinase 3 (Homo sapiens) (P27448 whole entry, looked up): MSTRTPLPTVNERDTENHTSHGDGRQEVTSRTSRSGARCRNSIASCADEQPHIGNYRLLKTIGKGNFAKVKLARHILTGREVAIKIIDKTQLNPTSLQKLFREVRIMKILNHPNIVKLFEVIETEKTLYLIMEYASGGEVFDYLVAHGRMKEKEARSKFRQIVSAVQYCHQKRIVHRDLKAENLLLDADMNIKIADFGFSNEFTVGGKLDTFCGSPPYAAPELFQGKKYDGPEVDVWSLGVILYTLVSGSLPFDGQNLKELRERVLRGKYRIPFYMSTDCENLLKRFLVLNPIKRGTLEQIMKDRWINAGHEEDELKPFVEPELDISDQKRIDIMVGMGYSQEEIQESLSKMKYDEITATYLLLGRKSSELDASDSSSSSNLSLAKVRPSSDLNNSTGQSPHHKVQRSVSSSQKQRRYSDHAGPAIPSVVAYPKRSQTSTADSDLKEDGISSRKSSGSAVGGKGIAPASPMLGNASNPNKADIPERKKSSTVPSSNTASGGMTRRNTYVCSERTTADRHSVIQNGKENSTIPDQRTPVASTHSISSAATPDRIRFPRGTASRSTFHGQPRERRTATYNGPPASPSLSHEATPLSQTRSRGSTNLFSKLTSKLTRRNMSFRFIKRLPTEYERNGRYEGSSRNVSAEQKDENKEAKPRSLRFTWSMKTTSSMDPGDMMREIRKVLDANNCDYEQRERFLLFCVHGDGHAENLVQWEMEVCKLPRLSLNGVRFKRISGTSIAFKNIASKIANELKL

Q: CNc1cc(Oc2cc(C(=O)Nc3cc(N4CCN(C)CC4)cc(C(F)(F)F)c3)ccc2C)ncn1 was tested. Which inhibition [1] did it give?
A: -1.2%

Q: How did the inhibition [2] turn out when CCN1CCN(Cc2ccc(NC(=O)c3ccc(C)c(Oc4ccnc5[nH]ccc45)c3)cc2C(F)(F)F)CC1 was run?
A: inactive

Q: And the inhibition [3]?
A: inactive

Q: And the inhibition [4]?
A: -3.4%

Q: What does the source list for CCN1CCN(Cc2ccc(NC(=O)c3ccc(C)c(/C=C/c4cnc5[nH]ccc5c4OC)c3)cc2C(F)(F)F)CC1?
A: inhibition [5]: 2.1%; inhibition [6]: 21.3%

— ChEMBL document CHEMBL5696442, “Discovery of type II inhibitors of TGFβ-activated kinase 1 (TAK1) and mitogen-activated protein kinase kinase kinase kinase 2 (MAP4K2)” (J Med Chem, 2015)
